Columns and labels:
[1] = system: FL5.12/Bcl-xL cells; experiment: Cell death upon IL-3 deprivation in Bcl-xL overexpressing cells; format: cell-based; details: PI staining
Excerpt: This effect could be overcome by a higher dose of BH3Is (FIG. 9E). Inactivation of Bcl-xL by BH3Is in FL5.12/Bcl-xL cells was detected as an increase in cell death following IL-3 deprivation.

[2] = system: Jurkat cells; experiment: Apoptosis in Jurkat cells (TUNEL, sub-G1 DNA, Annexin V); format: cell-based; details: BH3I-1 100 μM, BH3I-2 30 μM; for TUNEL staining: 48 hr; for sub-G1 DNA content: 72 hr, PI, FACS
Description: FIG. 6C is a series of FACS analysis graphs showing Annexin V staining of Jurkat cells. Jurkat cells were treated with BH3I-1 (100 μM) or BH3I-2 (30 μM) and were stained 4 or 6 hr later with Annexin V-EGFP/PI. The relative amounts of live, apoptotic, and late apoptotic/necrotic cells are shown.
To further examine the ability of BH3Is to induce apoptosis, Jurkat cells were treated with BH3I-1 (100 μM) (FIG. 6A, panels a and b), BH3I-2 (30 μM) (FIG. 6A, panels c and d) or DMSO (FIG. 6A, panels e and f) for 48 hr. The cells were then stained using Hoechst dye and a FragEL TUNEL kit (Oncogene Research Products). […] This was determined by treating Jurkat cells with BH3I-1 (100 μM) or BH3I-2 (30 μM), fixing them 72 hr later, and staining them with propidium iodide (PI). The samples were analyzed by FACS. Finally, BH3Is induced the appearance of Annexin V binding without an increase in PI staining (FIG. 6C).

[3] = biological target: T1, U2AF35 / U2AF65 interaction (Homo sapiens, UniProt Q01081); experiment: Pulldown of splicing factors (specificity control); format: binding; details: selectivity control
T1 construct: made in house; host or cells: U2AF65: TNT wheat germ lysate (Promega)
T1 sequence (Q01081 1-240): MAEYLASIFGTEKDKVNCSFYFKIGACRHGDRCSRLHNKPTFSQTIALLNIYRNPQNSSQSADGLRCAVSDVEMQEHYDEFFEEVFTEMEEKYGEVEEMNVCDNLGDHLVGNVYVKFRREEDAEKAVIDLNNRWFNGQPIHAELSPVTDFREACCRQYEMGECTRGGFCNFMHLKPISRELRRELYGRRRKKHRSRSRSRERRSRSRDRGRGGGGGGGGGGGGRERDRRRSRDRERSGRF
Description: Next, it was determined whether BH3Is could disrupt the heterodimerization of Bcl-xL with pro-apoptotic proteins from the Bcl-2 family, such as truncated Bid (tBid). Truncation of Bid by caspase-8 activates Bid and dramatically increases its affinity towards anti-apoptotic Bcl-2 family members (Li et al., Cell 94:491-501, 1998). To perform this study, in vitro translation of tBid or U2AF^65 (control) was performed using TNT® Coupled Reticulocyte and Wheat Germ Lysate Systems (Promega) respectively. Bcl-xL, U2AF^35 (control) or corresponding amounts of original Ni-NTA agarose beads (blank) were pre-incubated with the BH3 inhibitors or peptide in 100 μl of PBS for 30 min at 25° C. Then 1 μl of ^35S-labeled tBID or U2AF^65 was added and incubation was continued for 2 hr at 4° C. The samples were subjected to SDS-PAGE, coomassie blue staining and autoradiography.
To determine the specificity of BH3Is, their ability to inhibit other protein-protein interactions was tested using the pulldown assay described above and the splicing factors U2AF^35 and U2AF^65 (Zhang et al, Proc. Natl. Acad. Sci. USA 89:8769-73, 1992). […] BH3Is (80 μM) also had no effect on the interaction between the Apaf-1 CARD domain fragment and caspase-9 in the SELDI assay.

[4] = system: HeLa cells, Jurkat cells; experiment: Cytochrome c release and mitochondrial membrane potential; format: cell-based; details: immunostaining and fractionation, 48 hr
Description: FIG. 6D is a set of images of cells showing cytochrome c release induced by BH3Is. HeLa cells were treated with 100 μM BH3I-1 for 48 hr and were then stained with Hoechst (a) or cytochrome c antibody (b). The arrows indicate the position of an apoptotic cell.
FIG. 6E is an image of a Western blot analysis of cytochrome c release from Jurkat cells treated with BH3I-1 (100 μM) or BH3I-2 (50 μM) for 48 hr. Cells were fractionated and soluble (S) and heavy membrane (M) fractions were subjected to Western blot analysis using cytochrome c (Pharmingen) and VDAC (Calbiochem) antibodies.
Next, the role of BH3 Is in inducing the release of cytochrome c from mitochondria was examined.

[5] = system: Jurkat cells; experiment: Caspase activation with fluorogenic substrates; format: cell-based; details: for caspase-3-like activity (DEVD.amc) / caspase-9-like activity (LEHD.amc): BH3I-1 100 μM, BH3I-2 50 μM; for time of maximum activation of both caspases: after addition of the BH3I
Description: (§1) FIG. 6F is a graph showing the time course of caspase activation in Jurkat cells, as assayed using a QuantiPak kit (Biomol). The cells were treated with 100 μM of BH3I-1 (triangles) or 50 μM of BH3I-2 (squares) for 2, 6, 12, or 24 hr. A fluorescence based assay of caspase-3 (Ac-DEVD-AMC) activity was then performed. The numbers represent relative AMC fluorescence in each sample compared to the value obtained with untreated Jurkat cells incubated for 24 hours, set at 1. Standard deviation values are also shown.
as §1, with “6G” for “6F”, “12” for “12,”, “caspase-9 (Ac-LEHD-AMC)” for “caspase-3 (Ac-DEVD-AMC)”
FIG. 6H is a graph showing the comparison of caspase-9 (Ac-LEHD-AMC) (open bars) and caspase-8 (Ac-IETD-AMC) (closed bars) activation 12 and 24 hr after treatment of Jurkat cells with BH3Is.
To evaluate the activation of caspases by BH3Is, the activation of caspases in the presence of these compounds was measured using the preferred caspase-3 and caspase-9 fluorogenic substrates DEVD.amc and LEHD.amc. […] Activation of both caspases followed an essentially identical time course and reached a maximum 12 hours after addition of the BH3I. If BH3Is induce apoptosis through a mitochondrial pathway, caspase-9 should be activated before caspase-8, since the latter is a mediator of the death receptor pathway at the plasma membrane (Cryns et al., Genes Dev. 12:1551-70, 1998 [published erratum appears in Genes Dev. 13:371, 1999]). Therefore, the levels of caspase-9 and caspase-8 activity were compared by measuring LEHD.amc/IETD.amc cleavage activities.

Row | SMILES | cytotoxicity upon IL-3 deprivation [1] | TUNEL staining [2] | sub-G1 DNA content [2] | effect on interaction between splicing factors [3] | cytochrome c release [4] | caspase-3-like activity (DEVD.amc) [5] | caspase-9-like activity (LEHD.amc) [5] | time of maximum activation of both caspases [5]
1 | CC(C)C(C(=O)O)N1C(=O)C(=Cc2ccc(Br)cc2)SC1=S (stereo in doubt) [BH3I-1] | significantly increased upon IL-3 deprivation | TUNEL positivity | displayed sub-G1 DNA content | Neither BH3I-1 nor BH3I-2 affected the interaction | induced cytochrome c release | increase | increase | 12 h
2 | O=C(Nc1cc(S(=O)(=O)c2ccc(Cl)cc2)ccc1Cl)c1cc(Cl)cc(Br)c1O [BH3I-2] | significantly increased upon IL-3 deprivation | TUNEL positivity | displayed sub-G1 DNA content | Neither BH3I-1 nor BH3I-2 affected the interaction | induced cytochrome c release | increase | increase | 12 h

From patent US7390836B2, “Small molecules used to increase cell death” (priority 1999, dated 2008)
